For 42 compounds, pest or weed control results are on record in patent US20140343049A1, “DIHYDROFURAN DERIVATIVES AS INSECTICIDAL COMPOUNDS” (SYNGENTA PARTICIPATIONS AG, priority 2011, published 2014).

Holding throughout (format): in vivo
In assay [1] the test system is Spodoptera littoralis (Egyptian cotton leafworm). The assay can be described thus: Spodoptera littoralis cotton leaf disc spray test. The note with it: foliar, 72 h, cotton leaf discs sprayed at 200 ppm, 5 L1 larvae, mortality, feeding behavior, growth regulation 3 days after treatment. An excerpt:
Cotton leaf discs were placed on agar in a 24-well microtiter plate and sprayed with test solutions at an application rate of 200 ppm. After drying, the leaf discs were infested with 5 L1 larvae. The samples were checked for mortality, feeding behavior, and growth regulation 3 days after treatment (DAT).

The test system of assay [2] is Heliothis virescens (tobacco budworm). Briefly: Heliothis virescens egg test on artificial diet. The note with it: 96 h, 200 ppm (concentration in well 18 ppm), eggs 0-24 h old, 4 days, egg mortality, larval mortality, growth regulation. The protocol: Eggs (0-24 h old) were placed in 24-well microtiter plate on artificial diet and treated with test solutions at an application rate of 200 ppm (concentration in well 18 ppm) by pipetting. After an incubation period of 4 days, samples were checked for egg mortality, larval mortality, and growth regulation.

The test system of assay [3] is Plutella xylostella (diamond back moth). Briefly: Plutella xylostella L2 larvae test on artificial diet. The settings on record: 144 h, 200 ppm (concentration in well 18 ppm), 6 days, larval mortality and growth regulation. The protocol:
24-well microtiter plate (MTP) with artificial diet was treated with test solutions at an application rate of 200 ppm (concentration in well 18 ppm) by pipetting. After drying, the MTPs were infested with L2 larvae (7-12 per well). After an incubation period of 6 days, samples were checked for larval mortality and growth regulation.

The subject of assay [4] is Diabrotica balteata (corn root worm). Briefly: Diabrotica balteata L2 larvae test on artificial diet. The note with it: 120 h, 200 ppm (concentration in well 18 ppm), 5 days, larval mortality and growth regulation. As for the experimental part: A 24-well microtiter plate (MTP) with artificial diet was treated with test solutions at an application rate of 200 ppm (concentration in well 18 ppm) by pipetting. After drying, the MTPs were infested with L2 larvae (6-10 per well). After an incubation period of 5 days, samples were checked for larval mortality and growth regulation.
A 24-well microtiter plate (MTP) with artificial diet was treated with test solutions at an application rate of 12.5 ppm (concentration in well 18 ppm) by pipetting. After drying, the MTP's were infested with L2 larvae (6-10 per well). After an incubation period of 5 days, samples were checked for larval mortality and growth regulation.

As to `Cc1cc(C2=CC(c3cc(Cl)cc(Cl)c3)(C(F)(F)F)OC2)ccc1C(=O)NCC1CCCO1` (stereo not shown) [Compound A7], the pest or weed control at 200 ppm in assay [1], in assay [2], in assay [3] and in assay [4] was no less than 80% each time.

Compound `O=C(NC1CCC1)c1ccc(C2=CC(c3cc(Cl)cc(Cl)c3)(C(F)(F)F)OC2)nc1` (stereo not shown) [Compound B23] displayed a pest or weed control at 200 ppm in assay [3] of no less than 80%.

`CCNC(=O)c1ccc(C2=CC(c3cc(Cl)cc(Cl)c3)(C(F)(F)F)OC2)nc1` (stereo not shown) [Compound B2]: the pest or weed control at 200 ppm in assay [4] is no less than 80%.

Regarding `Cc1cc(C2=CC(c3cc(Cl)cc(Cl)c3)(C(F)(F)F)OC2)ccc1C(=O)NC1CCCCC1C` (stereo not shown) [Compound A32], the pest or weed control at 200 ppm in assay [3] and in assay [4] was no less than 80% each time.

Turning to `O=C(NCc1ccc(Cl)nc1)c1ccc(C2=CC(c3cc(Cl)cc(Cl)c3)(C(F)(F)F)OC2)nc1` (stereo not shown) [Compound B14], in assay [2], the pest or weed control at 200 ppm was no less than 80%.

`CC1(NC(=O)c2ccc(C3=CC(c4cc(Cl)cc(Cl)c4)(C(F)(F)F)OC3)nc2)CSC1` (stereo not shown) [Compound B19]: the pest or weed control at 200 ppm in assay [4] is no less than 80%.

With `Cc1nc(C2=CC(c3cc(Cl)cc(Cl)c3)(C(F)(F)F)OC2)ccc1C(=O)Nc1cccc(F)c1` (stereo not shown) [Compound C15], the pest or weed control at 200 ppm in assay [1], in assay [2] and in assay [3] was no less than 80% throughout.

As to `Cc1cc(C2=CC(c3cc(Cl)cc(Cl)c3)(C(F)(F)F)OC2=O)ccc1C(=O)NCc1ccccc1F` (stereo not shown) [Compound E9], in assay [3], the pest or weed control at 200 ppm was no less than 80%.

As for `Cc1cc(C2=CC(c3cc(Cl)cc(Cl)c3)(C(F)(F)F)OC2)ccc1C(=O)NCc1ccccc1` (stereo not shown) [Compound A8], the pest or weed control at 200 ppm in assay [4] was no less than 80%.

Take `Cc1cc(C2=CC(c3cc(Cl)cc(Cl)c3)(C(F)(F)F)OC2=O)ccc1C(=O)NCc1ccccn1` (stereo not shown) [Compound E13]: the pest or weed control at 200 ppm in assay [1], in assay [3] and in assay [4] was no less than 80% in each case.

In turn, `CCCCNC(=O)c1ccc(C2=CC(c3cc(Cl)cc(Cl)c3)(C(F)(F)F)OC2=O)cc1C` (stereo not shown) [Compound E3] returned a pest or weed control at 200 ppm in assay [3] of no less than 80%.

As to `Cc1cc(C2=CC(c3cc(Cl)cc(Cl)c3)(C(F)(F)F)OC2)ccc1C(=O)NCCOc1ccccc1` (stereo not shown) [Compound A42], the pest or weed control at 200 ppm in assay [1], in assay [2] and in assay [4] was no less than 80% each time.

With `CCCCNC(=O)c1ccc(C2=CC(c3cc(Cl)cc(Cl)c3)(C(F)(F)F)OC2)nc1C` (stereo not shown) [Compound C3], the pest or weed control at 200 ppm in assay [1], in assay [2], in assay [3] and in assay [4] was no less than 80% in each case.

In the case of `Cc1cc(C2=CC(c3cc(Cl)cc(Cl)c3)(C(F)(F)F)OC2)ccc1C(=O)NC1CCN(Cc2ccccc2)C1` (stereo not shown) [Compound A53], the pest or weed control at 200 ppm in assay [1] and in assay [4] was no less than 80% throughout.

Take `Cc1nc(C2=CC(c3cc(Cl)cc(Cl)c3)(C(F)(F)F)OC2)ccc1C(=O)NCC1CCCO1` (stereo not shown) [Compound C8]: the pest or weed control at 200 ppm in assay [1], in assay [2] and in assay [4] was no less than 80% each time.

The compound `O=C(NCC1CCCO1)c1ccc(C2=CC(c3cc(Cl)cc(Cl)c3)(C(F)(F)F)OC2)nc1` (stereo not shown) [Compound B8] gave a pest or weed control at 200 ppm in assay [3] of no less than 80%.

`Cc1cc(C2=CC(c3cc(Cl)cc(Cl)c3)(C(F)(F)F)OC2)ccc1C(=O)NCc1ccccc1C(F)(F)F` (stereo not shown) [Compound A48] returned a pest or weed control at 200 ppm in assay [4] of no less than 80%.

Take `Cc1cc(C2=CC(c3cc(Cl)cc(Cl)c3)(C(F)(F)F)OC2)ccc1C(=O)NCCN1CCN(Cc2ccccc2)CC1` (stereo not shown) [Compound A54]: the pest or weed control at 200 ppm in assay [2] and in assay [4] was no less than 80% throughout.

The compound `Cc1cc(C2=CC(c3cc(Cl)cc(Cl)c3)(C(F)(F)F)OC2)ccc1C(=O)Nc1ccc(-n2cccc2)cc1` (stereo not shown) [Compound A61] had a pest or weed control at 200 ppm in assay [4] of no less than 80%.

Take `Cc1cc(C2=CC(c3cc(Cl)cc(Cl)c3)(C(F)(F)F)OC2)ccc1C(=O)NCc1ccccc1N1CCCCC1` (stereo not shown) [Compound A50]: the pest or weed control at 200 ppm in assay [4] was no less than 80%.

The compound `Cc1cc(C2=CC(c3cc(Cl)cc(Cl)c3)(C(F)(F)F)OC2=O)ccc1C(=O)NC1CSC1` (stereo not shown) [Compound E17] showed a pest or weed control at 200 ppm in assay [4] of no less than 80%.

For `Cc1cc(C2=CC(c3cc(Cl)cc(Cl)c3)(C(F)(F)F)OC2)ccc1C(=O)NCCc1cccs1` (stereo not shown) [Compound A41], the pest or weed control at 200 ppm in assay [3] and in assay [4] was no less than 80% throughout.

Take `O=C(NCC(F)(F)F)c1ccc(C2=CC(c3cc(Cl)cc(Cl)c3)(C(F)(F)F)OC2)nc1` (stereo not shown) [Compound B1]: the pest or weed control at 200 ppm in assay [3] was no less than 80%.

As to `Cc1cc(O)nc(NC(=O)c2ccc(C3=CC(c4cc(Cl)cc(Cl)c4)(C(F)(F)F)OC3)cc2C)n1` (stereo not shown) [Compound A69], the pest or weed control at 200 ppm in assay [2], in assay [3] and in assay [4] was no less than 80% in each case.

In the case of `Cc1cc(NC(=O)c2ccc(C3=CC(c4cc(Cl)cc(Cl)c4)(C(F)(F)F)OC3)nc2C)n(C)n1` (stereo not shown) [Compound C16], the pest or weed control at 200 ppm in assay [2] and in assay [3] was no less than 80% throughout.

With `Cc1cc(NC(=O)c2ccc(C3=CC(c4cc(Cl)cc(Cl)c4)(C(F)(F)F)OC3)cc2C)n(C)n1` (stereo not shown) [Compound A67], the pest or weed control at 200 ppm in assay [1], in assay [2] and in assay [3] was no less than 80% throughout.

`COc1ccc(CNC(=O)c2ccc(C3=CC(c4cc(Cl)cc(Cl)c4)(C(F)(F)F)OC3=O)cc2C)cc1` (stereo not shown) [Compound E11] showed a pest or weed control at 200 ppm in assay [3] of no less than 80%.

`Cc1cc(C2=CC(c3cc(Cl)cc(Cl)c3)(C(F)(F)F)OC2)ccc1C(=O)Nc1ccc(S(=O)(=O)N(C)C)cc1` (stereo not shown) [Compound A66]: the pest or weed control at 200 ppm in assay [2] and in assay [4] was no less than 80% throughout.

Take `Cc1csc(NC(=O)c2ccc(C3=CC(c4cc(Cl)cc(Cl)c4)(C(F)(F)F)OC3=O)cc2C)n1` (stereo not shown) [Compound E15]: the pest or weed control at 200 ppm in assay [1] and in assay [4] was no less than 80% throughout.

For `CCC(C)NC(=O)c1ccc(C2=CC(c3cc(Cl)cc(Cl)c3)(C(F)(F)F)OC2)nc1` (stereo not shown) [Compound B7], the pest or weed control at 200 ppm in assay [3] was no less than 80%.

For `CSCC(C)(C)NC(=O)c1ccc(C2=CC(c3cc(Cl)cc(Cl)c3)(C(F)(F)F)OC2)nc1C` (stereo not shown) [Compound C18], the pest or weed control at 200 ppm in assay [1] and in assay [4] was no less than 80% each time.

`COc1ccc(CNC(=O)c2ccc(C3=CC(c4cc(Cl)cc(Cl)c4)(C(F)(F)F)OC3)nc2)cc1` (stereo not shown) [Compound B12] yielded a pest or weed control at 200 ppm in assay [4] of no less than 80%.

For `Cc1cc(C2=CC(c3cc(Cl)cc(Cl)c3)(C(F)(F)F)OC2=O)ccc1C(=O)NCCC(F)(F)F` (stereo not shown) [Compound E6], the pest or weed control at 200 ppm in assay [1] and in assay [3] was no less than 80% throughout.

In the case of `O=C(NCCC(F)(F)F)c1ccc(C2=CC(c3cc(Cl)cc(Cl)c3)(C(F)(F)F)OC2)nc1` (stereo not shown) [Compound B6], in assay [4], the pest or weed control at 200 ppm was no less than 80%.

For the compound `Cc1cc(C2=CC(c3cc(Cl)cc(Cl)c3)(C(F)(F)F)OC2)ccc1C(=O)Nc1ncnc2[nH]cnc12` (stereo not shown) [Compound A72], the pest or weed control at 200 ppm in assay [1] was no less than 80%.

Compound `Cc1nnc(NC(=O)c2ccc(C3=CC(c4cc(Cl)cc(Cl)c4)(C(F)(F)F)OC3)cc2C)s1` (stereo not shown) [Compound A75] came in with a pest or weed control at 200 ppm in assay [4] of no less than 80%.

The compound `Cc1cc(C2=CC(c3cc(Cl)cc(Cl)c3)(C(F)(F)F)OC2=O)ccc1C(=O)NCc1ccccc1` (stereo not shown) [Compound E8] returned a pest or weed control at 200 ppm in assay [1] of no less than 80%.

In the case of `O=C(CNC(=O)c1ccc(C2=CC(c3cc(Cl)cc(Cl)c3)(C(F)(F)F)OC2)nc1)NCC(F)(F)F` (stereo not shown) [Compound B5], in assay [2], the pest or weed control at 200 ppm was no less than 80%.

Take `Cc1cc(C2=CC(c3cc(Cl)cc(Cl)c3)(C(F)(F)F)OC2)ccc1C(=O)NCCc1ccccc1` (stereo not shown) [Compound A39]: the pest or weed control at 200 ppm in assay [2], in assay [3] and in assay [4] was no less than 80% each time.

With `Cc1nc(C2=CC(c3cc(Cl)cc(Cl)c3)(C(F)(F)F)OC2)ccc1C(=O)NCCC(F)(F)F` (stereo not shown) [Compound C6], the pest or weed control at 200 ppm in assay [1], in assay [3] and in assay [4] was no less than 80% throughout.

In assay [4], `Cc1cc(C2=CC(c3cc(Cl)cc(Cl)c3)(C(F)(F)F)OC2)ccc1C(=O)Nc1ccc2c(C)cc(=O)oc2c1` (stereo not shown) [Compound A65] had a pest or weed control at 200 ppm of no less than 80%.

`Cc1cc(C2=CC(c3cc(Cl)cc(Cl)c3)(C(F)(F)F)OC2=O)ccc1C(=O)NC1C[S+]([O-])C1` (stereo not shown) [Compound E19]: the pest or weed control at 200 ppm in assay [1] was no less than 80%.
